Laboratory results from patent US10821097B2, “DBH inhibitors for treating or preventing memory loss” (Brandeis University, priority 2015, dated 2020).

Assays:
DBH [1] = target: T1, DBH (Rattus norvegicus, UniProt Q05754); conditions: cited from earlier work; for blood-brain barrier crossing, indicated by effect of injections on brain dopamine levels: Antabuse 100 mg/kg, Nepicastat 50 mg/kg, intraperitoneal
T1 construct: In rat studies, Antabuse (100 mg/kg) and Nepicastat (50 mg/kg) were injected intraperitoneally; host or cells: rat, in vivo (endogenous enzyme)
T1 sequence (Q05754 1-620): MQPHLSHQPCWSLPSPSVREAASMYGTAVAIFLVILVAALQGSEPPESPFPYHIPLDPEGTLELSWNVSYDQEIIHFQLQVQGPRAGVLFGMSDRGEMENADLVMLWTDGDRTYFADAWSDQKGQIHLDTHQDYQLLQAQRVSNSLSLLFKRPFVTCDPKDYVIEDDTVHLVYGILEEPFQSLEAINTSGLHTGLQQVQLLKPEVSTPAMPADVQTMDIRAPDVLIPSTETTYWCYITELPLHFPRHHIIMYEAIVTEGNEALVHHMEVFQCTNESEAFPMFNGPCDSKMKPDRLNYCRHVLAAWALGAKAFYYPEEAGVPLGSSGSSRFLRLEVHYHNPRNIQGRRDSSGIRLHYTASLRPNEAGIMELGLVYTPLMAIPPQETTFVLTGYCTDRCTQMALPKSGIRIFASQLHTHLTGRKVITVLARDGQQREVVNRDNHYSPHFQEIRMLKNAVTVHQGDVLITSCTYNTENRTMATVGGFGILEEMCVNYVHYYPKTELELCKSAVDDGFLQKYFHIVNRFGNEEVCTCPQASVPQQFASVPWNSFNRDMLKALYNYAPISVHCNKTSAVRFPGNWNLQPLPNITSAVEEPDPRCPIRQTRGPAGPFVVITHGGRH

DBH [2] = conditions: in vivo; cited from earlier work
[3] = up to 120 mg/day; cited from earlier work
LC = assay: event arena memory test in KORD mice with the LC inhibited by SALB; format: in vivo; conditions: SALB subcutaneously 10 minutes before encoding trial
D1R = assay: light-stimulated dopamine release from LC axons, fEPSP in CA1 of hippocampal slices; format: cell-based; conditions: 10 uM, n=4, Schaffer collateral stimulation
Text: The chemogenetic approach allows the acute memory deficits produced by graded decrease in LC function to be measured. This model then provides a rigorous and rapid screening method to determine whether the resulting memory deficits can be reversed by agents that enhance dopamine release (with or without noradrenaline stimulants). Results in FIG. 2 document the role of LC axons in producing functionally important dopamine release. The experiments were done in CA1 using synaptic stimulation of Schaffer collaterals to measure synaptic strength. FIG. 2, left: brief light stimulation of the hippocampus (arrow) produces a long-lasting enhancement of the fEPSP (normalized increase in charge) (n=5). This light-stimulated release of dopamine replicates the effect of direct application of dopamine (Huang and Kandel, 1995). […] Stimulation protocol: three sets of ˜18 Hz stimulation (5 msec light pulses)=a total of 60 pulses/set; 1 minute between sets. The LC was injected in vivo with AAV virus that produced channel-rhodopsin in cells containing tyrosine hydroxylase, an enzyme in the dopamine and noradrenaline synthesis pathway (see FIG. 1). The selective expression in noradrenergic cells in the LC is due to Cre expression driven by a tyrosine hydroxylase promoter. […] The response of CA1 pyramidal cells was measured by the field EPSP (fEPSP). […]

[4] = IP, suspension in sterile saline

SMILES: CCN(CC)C(=S)SSC(=S)N(CC)CC [Disulfiram, 1,1′,1″,1′″-[disulfanediylbis(carbonothioylnitrilo)]tetraethane]
- blood-brain barrier crossing, indicated by effect of injections on brain dopamine levels (DBH [1]): cross the blood-brain barrier
- highest effective dose that didn't affect operant responses (DBH [1]; [4]): 100 mg/kg
- lowest effective concentration (DBH [1]; [4]): 10 mg/kg
- effect on dopamine concentration and/or dopamine release (DBH [2]): increase the concentration of dopamine and/or increase dopamine release

SMILES: NCc1c[nH]c(=S)n1[C@H]1CCc2c(F)cc(F)cc2C1 [Nepicastat, 5-(aminomethyl)-1-[(2S)-5,7-difluoro-1,2,3,4-tetrahydronaphthalen-2-yl]-1,3-dihydro-2H-imidazole-2-thione]
- tolerability [3]: well tolerated
- blood-brain barrier crossing, indicated by effect of injections on brain dopamine levels (DBH [1]): cross the blood-brain barrier
- dose reported to match the 100 mg/kg dose of Antabuse on DBH (DBH [1]; IP): 50 mg/kg
- effect on dopamine concentration and/or dopamine release (DBH [2]): increase the concentration of dopamine and/or increase dopamine release

SMILES: COC(=O)[C@@H]1C[C@H](O)C(=O)[C@H]2[C@@]1(C)CC[C@H]1C(=O)O[C@H](c3ccoc3)C[C@]21C [SALB, salvinorin B]
- 24 hr memory (LC): strongly reduce

SMILES: CN1CCc2cc(Cl)c(O)cc2[C@H]2c3ccccc3CC[C@@H]21 [SCH39166]
- enhancement of the fEPSP by light stimulation of LC axons in the presence of the antagonist (D1R): no enhancement
